Experimental data taken from PubChem BioAssay (NCI).
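Briefly, cells in 96-well plates were exposed to five compound concentrations for 48 h, and endpoints were estimated by linear interpolation. At the TGI there is no net growth.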

Experiments:
Assay in all cases: inhibition of tumour cell growth, NCI panel, 48 h
TK-10 renal = system: TK-10 renal
HOP-62 NSCLC = system: HOP-62 NSCLC
OVCAR-4 ovarian = system: OVCAR-4 ovarian
CAKI-1 renal = system: CAKI-1 renal
RPMI-8226 leukemia = system: RPMI-8226 leukemia
SK-MEL-28 melanoma = system: SK-MEL-28 melanoma
SN12C renal = system: SN12C renal
OVCAR-8 ovarian = system: OVCAR-8 ovarian
ACHN renal = system: ACHN renal
CCRF-CEM leukemia = system: CCRF-CEM leukemia
HOP-92 NSCLC = system: HOP-92 NSCLC
OVCAR-5 ovarian = system: OVCAR-5 ovarian
HCT-15 colon = system: HCT-15 colon
PC-3 prostate = system: PC-3 prostate
MDA-N = system: MDA-N
HS 578T breast = system: HS 578T breast
MDA-MB-231 breast = system: MDA-MB-231 breast

| SMILES | TGI (TK-10 renal) [µM] | TGI (HOP-62 NSCLC) [µM] | TGI (OVCAR-4 ovarian) [µM] | TGI (CAKI-1 renal) [µM] | TGI (RPMI-8226 leukemia) [µM] | TGI (SK-MEL-28 melanoma) [µM] | TGI (SN12C renal) [µM] | TGI (OVCAR-8 ovarian) [µM] | TGI (ACHN renal) [µM] | TGI (CCRF-CEM leukemia) [µM] | TGI (HOP-92 NSCLC) [µM] | TGI (OVCAR-5 ovarian) [µM] | TGI (HCT-15 colon) [µM] | TGI (PC-3 prostate) [µM] | TGI (MDA-N) [µM] | TGI (HS 578T breast) [µM] | TGI (MDA-MB-231 breast) [µM] |
| --- | --- | --- | --- | --- | --- | --- | --- | --- | --- | --- | --- | --- | --- | --- | --- | --- | --- |
| COc1cc2c(cc1OC)C(Cc1cc(Br)c(OC)c(OC)c1)=[N+](C)CC2 | > 100 | > 100 | > 100 | > 100 | > 100 | > 100 | > 100 | > 100 | > 100 | > 100 | > 100 | > 100 | > 100 |  |  |  |  |
| CN(C)CCSC(=Nc1ccccc1)n1cccc1 | > 100 | > 100 | > 100 | > 100 | > 100 | > 100 | > 100 | > 100 | > 100 | > 100 | 82.1 | > 100 | > 100 |  |  |  |  |
| COc1ccc([C@H]2[C@@H]3CCc4ccccc4C3=NN2C(N)=S)cc1OC | > 100 | > 100 | > 100 |  | > 100 | > 100 | > 100 | > 100 | > 100 | > 100 | > 100 | > 100 | > 100 |  |  |  |  |
| COc1cccc(C=C(C#N)C#N)c1OC | > 100 | > 100 | > 100 | > 100 | > 100 | > 100 | > 100 | > 100 | > 100 | > 100 | > 100 | > 100 | > 100 | > 100 | > 100 |  |  |
| Cc1ccc([N+](=O)[O-])cc1NC(=O)/C(CC(=O)c1sc(C(N)=S)nc1C)=N\N | > 100 | > 100 | > 100 | > 100 | > 100 | > 100 |  | > 100 | > 100 | 79.2 | > 100 | > 100 | > 100 |  |  |  |  |
| O=C1CCCc2cc3c(cc21)CC1(C3)Cc2cc3c(cc2C1)C(=O)CCC3 | 43.1 | > 63.2 | 82.7 | > 88 | 15.6 | 41.7 | > 85.3 | 36.3 | 35.8 | > 34.2 | 82.1 | > 62.5 | > 59.6 | > 100 |  | > 100 | 21.6 |
| C=CCc1cccc(/C(O)=C/C(=O)/C=C/c2ccccc2Cl)c1O | > 100 | 61.2 |  | > 100 | 36.5 | > 57.5 | > 100 | 25.5 | > 100 | 95.1 | 55.2 | > 100 | > 100 | 85 | > 100 |  | > 93.6 |
| COc1ccc(-n2nnc3c(C#N)c(C)c(-c4ccccc4)n3c2=O)cc1 | > 100 | > 100 | > 100 | > 100 | > 100 | > 100 | > 63.7 | > 70.8 | > 100 |  | > 100 | > 57.6 | > 100 | > 100 |  | > 100 | > 79.1 |
| CC(=O)OCc1ncccc1C(OC(C)=O)OC(C)=O | > 100 | > 100 | > 100 | > 100 |  | > 100 | > 100 | > 100 | > 100 | > 100 | > 100 | > 100 | > 100 |  |  |  |  |
| C[C@@H]1C[C@@H]2C(=O)N(c3ccccc3)C(=O)[C@@H]2c2[nH]c3ccc(Br)cc3c21 | > 100 | 47.6 | 57.9 | > 100 |  | > 100 | > 100 | 47.1 | > 100 | > 100 | 62.2 | > 100 | > 100 |  |  |  |  |
| CCOc1cc2cnc3c4cc(OC)c(OC)cc4ccc3c2cc1OC | > 100 | > 100 | > 100 | > 100 | > 100 | > 100 | > 100 | > 100 | > 100 | 88.6 | > 100 | > 100 | > 100 |  |  |  |  |
| CCOC(=O)COc1cc(-c2ccccc2)nc2cc(F)ccc12 | > 100 | > 100 | > 100 | > 100 | > 100 | > 100 | > 100 | > 100 |  | > 100 | > 100 | > 100 | > 100 | > 100 | > 100 |  | > 100 |
| COc1ccc(OC)c2c1ccc1c(C)c3ccccc3c(C)c12 | > 100 | > 100 | > 100 | > 100 | > 100 | > 100 | > 100 | > 100 | > 100 | > 100 |  | > 100 | > 100 | > 100 | > 100 |  | > 100 |
